Source: ChEMBL document CHEMBL1132896, “Beta-casomorphins: substitution of phenylalanine with beta-homo phenylalanine increases the mu-type opioid receptor affinity” (Bioorg Med Chem Lett, 2000)
Non-standard residues stand in square brackets, D forms with d. Residues, ends and D or L forms follow the SMILES beside them. β3hF = N[C@H](CC(=O)O)Cc1ccccc1

Legend:
Mu-type opioid receptor [1] = biological target: T1, Mu-type opioid receptor (Rattus norvegicus, UniProt P33535); experiment: Inhibitory concentration against [3H]DAMGO binding to Opioid receptor mu 1 in rat brain membrane; type: cell membranes
Mu-type opioid receptor [2] = biological target: T1, Mu-type opioid receptor; experiment: Compound was evaluated for the binding affinity of Opioid receptor mu 1 by displacing the radioligand [3H]DAMGO from rat brain membrane

T1 sequence (P33535 whole entry): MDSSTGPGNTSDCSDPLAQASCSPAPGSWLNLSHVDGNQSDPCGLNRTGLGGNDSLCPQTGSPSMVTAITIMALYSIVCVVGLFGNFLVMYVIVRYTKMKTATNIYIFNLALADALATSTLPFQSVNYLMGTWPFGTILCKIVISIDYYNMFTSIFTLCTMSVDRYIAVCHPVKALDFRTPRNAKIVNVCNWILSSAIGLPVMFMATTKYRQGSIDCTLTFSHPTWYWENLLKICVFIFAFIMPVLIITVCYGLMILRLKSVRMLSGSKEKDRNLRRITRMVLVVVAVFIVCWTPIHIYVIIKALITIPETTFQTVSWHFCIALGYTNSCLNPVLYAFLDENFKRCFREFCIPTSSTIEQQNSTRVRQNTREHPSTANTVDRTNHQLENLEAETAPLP

Compound | IC50 (Mu-type opioid receptor [1]) | Ki (Mu-type opioid receptor [2])
N[C@@H](Cc1ccc(O)cc1)C(=O)N1CCC[C@H]1C(=O)N[C@H](CC(=O)N1CCC[C@H]1C(=O)NCC(=O)O)Cc1ccccc1 (H-YP[β3hF]PG-OH) | 2 µM | 0.72 µM
N[C@@H](Cc1ccc(O)cc1)C(=O)N1CCC[C@H]1C(=O)N[C@@H](Cc1ccccc1)C(=O)N1CCC[C@H]1C(=O)NCC(=O)O (H-YPFPG-OH) | 4.5 µM | 1.62 µM
CC[C@H](C)[C@H](NC(=O)[C@@H]1CCCN1C(=O)CNC(=O)[C@@H]1CCCN1C(=O)C[C@H](Cc1ccccc1)NC(=O)[C@@H]1CCCN1C(=O)[C@@H](N)Cc1ccc(O)cc1)C(=O)O (H-YP[β3hF]PGPI-OH) | 4 µM | 1.44 µM
CC[C@H](C)[C@H](NC(=O)[C@@H]1CCCN1C(=O)CNC(=O)[C@@H]1CCCN1C(=O)[C@H](Cc1ccccc1)NC(=O)[C@@H]1CCCN1C(=O)[C@@H](N)Cc1ccc(O)cc1)C(=O)O (H-YPFPGPI-OH) | 20 µM | 7.54 µM
